Data on 38 molecules can be found in patent US20070208026A1, “N-Containing Heteroaromatic Compounds As Modulators Of Ppars And Methods Of Treating Metabolic Disorders” (priority 2003, published 2007).

What all share (assay): cell-based human PPAR-GAL4 chimera luciferase reporter assay in CV-1 cells
One test addresses T1, hPPAR α (Homo sapiens, UniProt Q07869).
T1 construct: expressed in transfected cells; host or cells: CV-1 cells
T1 sequence (Q07869 239-466 limits assumed): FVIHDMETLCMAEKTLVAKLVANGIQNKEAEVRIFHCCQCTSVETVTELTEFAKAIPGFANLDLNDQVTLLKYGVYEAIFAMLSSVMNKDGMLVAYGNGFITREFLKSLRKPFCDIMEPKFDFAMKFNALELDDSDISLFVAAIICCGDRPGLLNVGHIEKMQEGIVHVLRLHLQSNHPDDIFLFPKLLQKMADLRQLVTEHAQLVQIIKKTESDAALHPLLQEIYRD
As to conditions: PPAR LBD-GAL4 chimera, 24 hours treatment; for EC50: read-out: hPPAP α (EC50). How it is done:
(§1) The compounds were evaluated in a cell-based assay to determine their human PPAR activity (See Tables 2 and 3). The plasmids for human PPAR-GAL4 chimeras were prepared by fusing amplified cDNAs encoding the LBDs of PPARs to the C-terminal end of the yeast GAL4 DNA binding domain. CV-1 cells were grown and transiently tranfected with PerFectin (GTS, San Diego, Calif.) according to the manufacturer's protocol along with a luciferase reporter. Eight hours after transfection, 50 μl of cells were replated into 384 well plates ([…]). Sixteen hours after replating, cells were treated with either compounds or 1% DMSO for 24 hours. Luciferase activity was then assayed with Britelite (Perkin Elmer) following the manufacturer's protocol and measured with either the Perkin Elmer Viewlux or Molecular Devices Acquest.

The next test deals with T2, hPPAR δ (Homo sapiens, UniProt Q03181).
T2 construct: expressed in transfected cells; host or cells: CV-1 cells
T2 sequence (Q03181 211-439 limits assumed): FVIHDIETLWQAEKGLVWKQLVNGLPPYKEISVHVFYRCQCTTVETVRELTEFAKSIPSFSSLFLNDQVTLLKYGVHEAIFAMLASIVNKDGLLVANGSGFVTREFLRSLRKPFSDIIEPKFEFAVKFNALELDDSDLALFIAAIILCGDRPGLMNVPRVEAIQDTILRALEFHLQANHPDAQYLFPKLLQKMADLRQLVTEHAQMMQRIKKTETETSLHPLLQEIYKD
The following applies: PPAR LBD-GAL4 chimera, 24 hours treatment. On the procedure:
as §1

The target of a further test is T3, hPPAR γ (Homo sapiens, UniProt P37231).
T3 construct: expressed in transfected cells; host or cells: CV-1 cells
T3 sequence (P37231 238-503 limits assumed): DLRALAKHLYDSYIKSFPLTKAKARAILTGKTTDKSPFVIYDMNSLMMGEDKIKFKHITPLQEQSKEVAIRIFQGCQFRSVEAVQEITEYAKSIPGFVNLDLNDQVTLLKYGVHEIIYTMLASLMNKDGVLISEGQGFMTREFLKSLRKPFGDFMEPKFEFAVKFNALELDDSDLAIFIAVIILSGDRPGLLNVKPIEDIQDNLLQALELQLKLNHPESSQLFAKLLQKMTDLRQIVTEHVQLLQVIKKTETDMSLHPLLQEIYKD
As to conditions: PPAR LBD-GAL4 chimera, 24 hours treatment. On the procedure: as §1

The EC50 is the concentration that produces a half-maximal response.

With `O=C(O)c1nc2ccccc2nc1OCCCN(Cc1ccc(C(F)(F)F)cc1)c1nc2ccccc2s1`, the 50% effective concentration (EC50) is > 100 µM at hPPAR α, > 100 µM on hPPAR δ and > 100000 nM at hPPAR γ.

With `O=C(O)c1cncc(OCCCN(Cc2ccc(C(F)(F)F)cc2)c2nc3ccccc3s2)c1`, the results for the concentration for a half-maximal effect (EC50) on hPPAR α, at hPPAR δ and at hPPAR γ were 1 to 100 µM, > 100 µM and < 1000 nM, respectively.

`CCc1cnc(N(CCCOc2ncc(C(=O)O)cc2Cl)Cc2ccc(C(F)(F)F)cc2C(F)(F)F)nc1`: the figures for the EC50 on hPPAR α, on hPPAR δ and at hPPAR γ were > 100 µM, > 100 µM and < 1000 nM, respectively.

`CCCCN(CCCOc1cccc(C(=O)O)n1)c1ccccn1`: the figures for the concentration giving a half-maximal response (EC50) at hPPAR α, at hPPAR δ and on hPPAR γ were > 100 µM, > 100 µM and 1000 to 100000 nM, respectively.

As for `CCCCN(CCCOc1cncc(C(=O)O)c1)c1nc2ccccc2s1`, the concentration for a half-maximal effect (EC50) at hPPAR α is > 100 µM; on hPPAR δ, > 100 µM; on hPPAR γ, < 1000 nM.

On to `CCCCN(CCCOc1nc2ccccc2nc1C(=O)O)c1nc2ccccc2s1`, for which the concentration giving a half-maximal response (EC50) at hPPAR α was > 100 µM; on hPPAR δ it was > 100 µM; at hPPAR γ it was 1000 to 100000 nM.

Take `CCc1cnc(N(CCCOc2cccc(C(=O)O)n2)Cc2ccc(C(F)(F)F)cc2C(F)(F)F)nc1`: at hPPAR α, the “hPPAP α (EC50)” value is reported as “A/B”. The half-maximal effective concentration (EC50) at hPPAR δ is > 100 µM; at hPPAR γ, < 1000 nM.

`CCCCN(CCCOc1cncc(C(=O)O)c1)c1ncc(CC)cn1`: the concentration giving a half-maximal response (EC50) on hPPAR α was > 100 µM; at hPPAR δ, > 100 µM; on hPPAR γ, < 1000 nM.

Consider `O=C(O)c1nc2ccccc2nc1OCCCN(Cc1ccc(C(F)(F)F)cc1C(F)(F)F)c1ccccn1`, for which the results for the EC50 at hPPAR α, on hPPAR δ and on hPPAR γ were > 100 µM, > 100 µM and < 1000 nM, respectively.

For `O=C(O)c1cccc(OCCCN(Cc2ccc(C(F)(F)F)cc2C(F)(F)F)c2ccccn2)n1`, the EC50 is 1 to 100 µM at hPPAR α, > 100 µM at hPPAR δ and < 1000 nM on hPPAR γ.

For the molecule `O=C(O)Cc1c[nH]c2ccc(OCCCN(Cc3ccc(C(F)(F)F)cc3C(F)(F)F)c3nc4ccccc4o3)cc12`, the concentration giving a half-maximal response (EC50) was > 100 µM on hPPAR α, < 1 µM on hPPAR δ and < 1000 nM at hPPAR γ.

`CCCCN(CCCOc1cccc(C(=O)O)n1)c1nc2ccccc2s1`: the EC50 at hPPAR α is > 100 µM; on hPPAR δ, > 100 µM; on hPPAR γ it was 1000 to 100000 nM.

Turning to `CCCCN(CCCOc1ccc2[nH]cc(CC(=O)O)c2c1)c1ncc(CC)cn1`, the EC50 at hPPAR α was > 100 µM; at hPPAR δ, > 100 µM; at hPPAR γ it was 1000 to 100000 nM.

For the molecule `CCCCN(CCCOc1nc2ccccc2nc1C(=O)O)c1ncc(CC)cn1`, the EC50 was > 100 µM on hPPAR α, 1 to 100 µM on hPPAR δ and 1000 to 100000 nM on hPPAR γ.

`CCCCN(CCCOc1ccc2[nH]cc(CC(=O)O)c2c1)c1nc2ccccc2s1`: the half-maximal effective concentration (EC50) on hPPAR α was > 100 µM; on hPPAR δ, 1 to 100 µM; on hPPAR γ, 1000 to 100000 nM.

Regarding `CCCCN(CCCOc1cccc(C(=O)O)n1)c1ncc(CC)cn1`, the half-maximal effective concentration (EC50) on hPPAR α is 1 to 100 µM; at hPPAR δ, 1 to 100 µM; on hPPAR γ, < 1000 nM.

Consider `CCCCN(CCCOc1nc2ccccc2nc1C(=O)O)c1ccccn1`, for which the EC50 is > 100 µM at hPPAR α, > 100 µM on hPPAR δ and 1000 to 100000 nM on hPPAR γ.

`CCCCN(CCCOc1ccc2[nH]cc(CC(=O)O)c2c1)c1nc2ccccc2o1`: the EC50 was > 100 µM on hPPAR α, 1 to 100 µM on hPPAR δ and 1000 to 100000 nM on hPPAR γ.

As for `O=C(O)c1cncc(OCCCN(Cc2ccc(C(F)(F)F)cc2C(F)(F)F)c2nc3ccccc3s2)c1`, the 50% effective concentration (EC50) was > 100 µM at hPPAR α, > 100 µM at hPPAR δ and 1000 to 100000 nM at hPPAR γ.

On to `CCCCN(CCCOc1ccc2[nH]cc(CC(=O)O)c2c1)c1ccccn1`, for which the 50% effective concentration (EC50) is > 100 µM on hPPAR α, > 100 µM at hPPAR δ and 1000 to 100000 nM at hPPAR γ.

For the molecule `O=C(O)c1nc2ccccc2nc1OCCCN(Cc1ccc(C(F)(F)F)cc1C(F)(F)F)c1nc2ccccc2o1`, the concentration for a half-maximal effect (EC50) was > 100 µM on hPPAR α, > 100 µM on hPPAR δ and < 1000 nM at hPPAR γ.

Consider `O=C(O)c1nc2ccccc2nc1OCCCN(Cc1ccc(C(F)(F)F)cc1C(F)(F)F)c1nc2ccccc2s1`, for which the concentration giving a half-maximal response (EC50) is > 100 µM on hPPAR α, > 100 µM on hPPAR δ and < 1000 nM at hPPAR γ.

For `O=C(O)c1cccc(OCCCN(Cc2ccc(C(F)(F)F)cc2)c2nc3ccccc3s2)n1`, the concentration for a half-maximal effect (EC50) at hPPAR α is > 100 µM; at hPPAR δ, > 100 µM; at hPPAR γ, < 1000 nM.

As to `O=C(O)Cc1c[nH]c2ccc(OCCCN(Cc3ccc(C(F)(F)F)cc3C(F)(F)F)c3nc4ccccc4s3)cc12`, the concentration giving a half-maximal response (EC50) at hPPAR α was > 100 µM; at hPPAR δ, > 100 µM; at hPPAR γ, < 1000 nM.

On to `CCc1cnc(N(CCCOc2nc3ccccc3nc2C(=O)O)Cc2ccc(C(F)(F)F)cc2C(F)(F)F)nc1`, for which the figures for the EC50 at hPPAR α, on hPPAR δ and at hPPAR γ were > 100 µM, > 100 µM and < 1000 nM, respectively.

With `O=C(O)c1cncc(OCCCN(Cc2ccc(C(F)(F)F)cc2C(F)(F)F)c2ccccn2)c1`, the values for the concentration for a half-maximal effect (EC50) at hPPAR α, at hPPAR δ and on hPPAR γ were 1 to 100 µM, 1 to 100 µM and < 1000 nM, respectively.

Regarding `CCc1cnc(N(CCCOc2ccc3c(c2)c(CC(=O)O)cn3C)Cc2ccc(C(F)(F)F)cc2C(F)(F)F)nc1`, the EC50 on hPPAR α was 1 to 100 µM; on hPPAR γ, < 1000 nM. Also, the “hPPAR δ (EC50)” value at hPPAR δ is recorded as “B/C”.

For `O=C(O)c1cccc(OCCCN(Cc2ccc(C(F)(F)F)cc2C(F)(F)F)c2nc3ccccc3s2)n1`, the EC50 on hPPAR α was < 1 µM; at hPPAR δ, > 100 µM; at hPPAR γ it was < 1000 nM.

For the molecule `CCCCN(CCCOc1nc2ccccc2nc1C(=O)O)c1nc2ccccc2o1`, the results for the half-maximal effective concentration (EC50) at hPPAR α, on hPPAR δ and on hPPAR γ were > 100 µM, > 100 µM and 1000 to 100000 nM, respectively.

Take `CCc1cnc(N(CCCOc2cncc(C(=O)O)c2)Cc2ccc(C(F)(F)F)cc2C(F)(F)F)nc1`: the “hPPAP α (EC50)” value at hPPAR α is “B/C”. Moreover, the EC50 was 1 to 100 µM at hPPAR δ and < 1000 nM on hPPAR γ.

Turning to `CCc1cnc(N(CCCOc2ccc3[nH]cc(CC(=O)O)c3c2)Cc2ccc(C(F)(F)F)cc2C(F)(F)F)nc1`, the EC50 at hPPAR α is > 100 µM; at hPPAR δ, 1 to 100 µM; on hPPAR γ it was < 1000 nM.

As to `CCCCN(CCCOc1cccc(C(=O)O)n1)c1nc2ccccc2o1`, the EC50 was 1 to 100 µM on hPPAR α, > 100 µM on hPPAR δ and < 1000 nM on hPPAR γ.

As to `O=C(O)Cc1c[nH]c2ccc(OCCCN(Cc3ccc(C(F)(F)F)cc3C(F)(F)F)c3ccccn3)cc12`, the EC50 on hPPAR α was > 100 µM; at hPPAR δ, 1 to 100 µM; on hPPAR γ, < 1000 nM.

For `O=C(O)c1cccc(OCCCN(Cc2ccc(C(F)(F)F)cc2C(F)(F)F)c2nc3ccccc3o2)n1`, the EC50 on hPPAR α was < 1 µM; at hPPAR δ, > 100 µM; at hPPAR γ, > 100000 nM.

Turning to `CCc1cnc(N(CCCOc2cccc3ccc(C(=O)O)nc23)Cc2ccc(C(F)(F)F)cc2C(F)(F)F)nc1`, the results for the half-maximal effective concentration (EC50) on hPPAR α, on hPPAR δ and at hPPAR γ were > 100 µM, > 100 µM and 1000 to 100000 nM, respectively.

Turning to `CCCCN(CCCOc1cncc(C(=O)O)c1)c1nc2ccccc2o1`, the 50% effective concentration (EC50) on hPPAR α is > 100 µM; on hPPAR δ it was > 100 µM; on hPPAR γ, 1000 to 100000 nM.

With `O=C(O)c1cncc(OCCCN(Cc2ccc(C(F)(F)F)cc2C(F)(F)F)c2nc3ccccc3o2)c1`, the results for the EC50 at hPPAR α, at hPPAR δ and on hPPAR γ were > 100 µM, > 100 µM and 1000 to 100000 nM, respectively.

In the case of `CCCCN(CCCOc1cncc(C(=O)O)c1)c1ccccn1`, the EC50 was > 100 µM at hPPAR α, > 100 µM at hPPAR δ and 1000 to 100000 nM on hPPAR γ.
